Reference: paper PMC11489226 (Archives of Toxicology, 2024)
“And” between values parts separate entries of the source, which are not always exact repeats. Equal entries are not always repeated.

Tests used:
[1] = biological target: CYP3A4 (Homo sapiens, UniProt P08684); assay: Metabolism in transgenic HEK293 cells expressing CYP3A4; conditions: 20 µM parent PCB, 24 h, supernatant
Procedure: (§1) For the generation of transgenic cell lines, we used semi-adherent HEK293 cells (DSMZ, ACC305, human embryonic kidney cells) which were cultured on a daily basis in DMEM medium supplemented with 10% (FCS) and 1% penicillin/streptomycin. In a first step CYP1A2, CYP2C8, CYP2C9, CYP3A4, CYP2A6, and CYP2E1 cDNA were cloned into the plasmid pcDNATM3.1/V5-His TOPO® using human liver RNA as a template and using the following primers: CYP1A2 for5′-[…]-3′, CYP1A2 rev 5′-[…]-3′; CYP2C8 for 5′-[…]-3′, CYP2C8 rev 5′-[…]-3′; CYP2C9 for 5′-[…]-3′, CYP2C9 rev 5′-[…]-3′; CYP3A4 for 5′-[…]-3′, CYP3A4 rev 5′-[…]-3′, CYP2A6 for 5′-[…]-3′, CYP2A6 rev 5′-[…]-3′; CYP2E1 for 5′-[…]-3′, CYP2E1 rev 5′-[…]-3′. Final constructs were verified with Sanger DNA sequencing and restriction digestion. For transfection, 3 × 10^6 HEK293 cells were pre-incubated in a 10 cm dish in DMEM medium with 10% FCS, but without antibiotics, for 18 to 24 h. When the cells reached approximately 70% confluency, they were transfected using TransIT-LT1 transfection reagent (Biozol, Eiching, Germany). The TransIT-LT1 reagent was warmed to room temperature and vortexed. 1.63 mL Opti-MEM, 16.25 µL plasmid DNA (1 µg/µL), and 48.75 µL TransIT-LT1 reagent were mixed and incubated for 15 to 30 min. The mixture was then added dropwise to the medium of the cells, and the cells were incubated again at 37 °C and 5% CO2. After 24 h, the medium was replaced with standard medium and geneticin was added for selection (1 mg/mL). Cells were selected for 6–8 weeks in bulk culture, and single cell clones were obtained subsequently by limiting dilution. Each clone was checked for insertion by PCR using genomic DNA as a template.
(§2) Parallel samples were run without the addition of PCBs. At a confluence of 80%, PCBs (20 μM each, dissolved in ethanol) were added and cells were incubated for 24 h before harvest of supernatants. Supernatants were diluted 1:2 with 80 μL acetate buffer 0.1 M (pH = 5.3). 100 μL of this dilution were further incubated with 100 μL of ammonium acetate buffer 0.1 M (pH = 5.3) and 5 μL of β-Glucuronidase/Arylsulfatase enzyme overnight in a drying oven at 37 °C for enzymatic hydrolysis to release conjugated compounds. 50 μL of a mix of internal standards (10 ng/mL) and 600 μL of methanol were added to the samples, then mixed by vortexing for 1 min and centrifuged for 10 min at 3400g. The individual supernatants were transferred to glass LC vials and evaporated to approximately 50 μL at 45 °C under a gentle stream of nitrogen. Finally, 0.1 mol/ L ammonium acetate buffer was added to a final volume of 100 μL and then transferred to an insert for analysis.
(§3) HEK293 cells overexpressing the respective CYP enzymes were seeded onto 6-well plates and were treated with or without 10 µM of the respective probe drug in DMEM medium for 24 hours at 37 °C and 5 % CO2. After incubation 200 µL DMEM were collected, cells were washed with PBS and adherent cells were lysed in 500 µL methanol for 20 minutes. Analytes were measured by LC-MS/MS either in methanol cell lysates or in DMEM supernatant.
(§4) 50 µL of DMEM samples were protein precipitated by adding 200 µL of methanol and were centrifuged for 20 min, 17,000 g and 4°C. Supernatants were diluted in water or 40 % methanol according to dilution factor. Methanol cell lysates were diluted ½ with water and centrifuged for 20 min, 17,000 g and 4°C. 5 µL of the processed samples were injected for LC-MS analysis.

[2] = biological target: T1, CYP2C8 (Homo sapiens, UniProt P10632); assay: Metabolism in transgenic HEK293 cells expressing CYP2C8; type: in vitro ADME; conditions: 20 µM parent PCB, 24 h, supernatant
T1 construct: V5-His (vector-encoded) (C); expressed in transfected cells
T1 sequence (P10632 1-490): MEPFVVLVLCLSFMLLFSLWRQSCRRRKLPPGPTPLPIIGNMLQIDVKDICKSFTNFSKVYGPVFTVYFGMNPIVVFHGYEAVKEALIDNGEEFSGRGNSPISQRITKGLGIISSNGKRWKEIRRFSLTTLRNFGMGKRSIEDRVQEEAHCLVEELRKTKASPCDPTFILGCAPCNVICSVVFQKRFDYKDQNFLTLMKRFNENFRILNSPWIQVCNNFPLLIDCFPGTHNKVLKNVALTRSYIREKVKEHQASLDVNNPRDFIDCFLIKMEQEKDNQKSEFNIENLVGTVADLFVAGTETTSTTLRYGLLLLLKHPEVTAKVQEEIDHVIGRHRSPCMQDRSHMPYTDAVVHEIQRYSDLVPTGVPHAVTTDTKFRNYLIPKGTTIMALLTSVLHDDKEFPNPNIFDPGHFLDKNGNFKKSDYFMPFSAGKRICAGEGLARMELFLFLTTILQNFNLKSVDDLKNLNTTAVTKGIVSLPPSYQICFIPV
Procedure: as §1
as §2, with “analysis. […]” for “analysis.”

[3] = biological target: CYP2E1 (Homo sapiens, UniProt P05181); assay: Metabolism in transgenic HEK293 cells expressing CYP2E1; conditions: 20 µM parent PCB, 24 h, supernatant
Procedure: as §1, §2, §3, §4

[4] = biological target: T2, CYP2A6 (Homo sapiens, UniProt P11509); assay: Metabolism in transgenic HEK293 cells expressing CYP2A6; type: in vitro ADME; set-up: V5-His (vector-encoded) (C); expressed in transfected cells; conditions: 20 µM parent PCB, 24 h; for Quantification of metabolites generated from PCB28, 52, and 101: supernatant; for Metabolite concentration formed, range across cell clones: HEK293CYP2A6 cell lines
T2 sequence (P11509 1-494): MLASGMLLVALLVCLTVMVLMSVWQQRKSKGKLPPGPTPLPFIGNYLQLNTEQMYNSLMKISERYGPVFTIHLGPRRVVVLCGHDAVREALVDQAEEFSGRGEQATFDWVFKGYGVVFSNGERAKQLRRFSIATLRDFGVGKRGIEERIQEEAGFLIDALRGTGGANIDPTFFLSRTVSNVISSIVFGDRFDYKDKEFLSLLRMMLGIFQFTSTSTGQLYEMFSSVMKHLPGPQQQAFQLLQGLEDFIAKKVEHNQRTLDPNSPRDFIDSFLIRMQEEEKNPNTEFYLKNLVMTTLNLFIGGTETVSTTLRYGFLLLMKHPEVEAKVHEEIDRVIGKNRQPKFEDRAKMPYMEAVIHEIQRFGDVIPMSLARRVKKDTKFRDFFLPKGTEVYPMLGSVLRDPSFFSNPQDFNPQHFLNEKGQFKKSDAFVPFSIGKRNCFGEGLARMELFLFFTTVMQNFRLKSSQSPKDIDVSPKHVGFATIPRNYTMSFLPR
Procedure: as §1, §2, §3, §4

[5] = tested on: HEK293CYP2A6 cells; assay: Micronucleus assay in HEK293CYP2A6 cells; type: cell-based, human; conditions: positive control, 10 µm, 24 h
Procedure: Transgenic HEK293CYP2A6 and HEK293CYP2C9 cells were cultured in T25 flasks, with a seeding density of 1 × 10^6 cells per flask at 37 °C with 5% CO2. Cells were allowed to grow for 24 h geneticin free before PCBs were added (20 µM or 30 µM). Controls included cells grown in the presence of 1% ethanol (vol/vol) (negative control) or […] 4-nitroquinoline 1-oxide (positive control). Following further incubation for 24 h, cells were synchronized by adding Cytochalasin B. Subsequently, cells were harvested by trypsinization, centrifuged (2,000g, 10 min), and washed with DPBS (Dulbecco’s PBS). For hypotonic shock, 4 °C cold potassium chloride solution was added to the cells under agitation. Cells were completely resuspended and incubated at room temperature for 5 min. After centrifugation (2,500g, 10 min), the supernatant was discarded. To fix the cells, they were treated with a methanol/acetic acid solution (− 20 °C), with a minimum incubation time of 15 min at room temperature. Following centrifugation (2,500g, 10 min), the supernatant was discarded, and the fixation process was repeated at least three times. Finally, the samples were dissolved in 1 mL of fixative solution and incubated overnight at 4 °C. For analysis, two to three drops from each sample were placed on a glass slide, with intermittent heating of the slide. Subsequently, the cells were visualized with acridine orange, and using a fluorescence microscope (Leica DM6000B, Filter I3 450–490 nm), 2,000 cells per sample were counted.

[6] = biological target: T3, CYP1A2 (Homo sapiens, UniProt P05177); assay: Metabolism in transgenic HEK293 cells expressing CYP1A2 (LC-MS/MS of supernatant)
T3 sequence (P05177 1-516): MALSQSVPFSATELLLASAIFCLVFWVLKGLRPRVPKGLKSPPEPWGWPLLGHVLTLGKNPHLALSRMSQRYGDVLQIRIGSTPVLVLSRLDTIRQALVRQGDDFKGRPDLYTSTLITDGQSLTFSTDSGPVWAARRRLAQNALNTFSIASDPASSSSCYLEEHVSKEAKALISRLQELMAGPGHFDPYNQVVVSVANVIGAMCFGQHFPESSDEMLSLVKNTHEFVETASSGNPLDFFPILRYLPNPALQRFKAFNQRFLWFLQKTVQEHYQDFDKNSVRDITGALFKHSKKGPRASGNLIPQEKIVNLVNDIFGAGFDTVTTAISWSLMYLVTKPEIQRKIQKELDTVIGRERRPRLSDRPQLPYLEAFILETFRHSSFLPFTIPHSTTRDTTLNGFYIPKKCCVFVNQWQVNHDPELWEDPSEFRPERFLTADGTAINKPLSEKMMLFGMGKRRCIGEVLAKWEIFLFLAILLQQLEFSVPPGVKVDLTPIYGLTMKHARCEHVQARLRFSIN
Procedure: as §1, §2, §3, §4

Chain of CYP2E1 (P05181 whole entry): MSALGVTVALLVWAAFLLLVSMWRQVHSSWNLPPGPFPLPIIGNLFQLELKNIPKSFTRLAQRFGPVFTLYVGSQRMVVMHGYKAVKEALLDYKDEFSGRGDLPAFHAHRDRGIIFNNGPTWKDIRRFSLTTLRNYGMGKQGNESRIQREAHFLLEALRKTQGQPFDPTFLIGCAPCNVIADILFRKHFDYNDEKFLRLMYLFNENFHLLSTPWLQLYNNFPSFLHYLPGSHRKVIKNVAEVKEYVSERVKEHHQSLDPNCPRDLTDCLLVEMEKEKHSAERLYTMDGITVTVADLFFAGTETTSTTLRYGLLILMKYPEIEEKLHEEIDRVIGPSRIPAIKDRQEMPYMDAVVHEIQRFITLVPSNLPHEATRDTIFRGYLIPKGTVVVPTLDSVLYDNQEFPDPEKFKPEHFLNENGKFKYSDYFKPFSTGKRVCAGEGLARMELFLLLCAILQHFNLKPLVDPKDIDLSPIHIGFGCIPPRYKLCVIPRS
Chain of CYP3A4 (P08684 whole entry): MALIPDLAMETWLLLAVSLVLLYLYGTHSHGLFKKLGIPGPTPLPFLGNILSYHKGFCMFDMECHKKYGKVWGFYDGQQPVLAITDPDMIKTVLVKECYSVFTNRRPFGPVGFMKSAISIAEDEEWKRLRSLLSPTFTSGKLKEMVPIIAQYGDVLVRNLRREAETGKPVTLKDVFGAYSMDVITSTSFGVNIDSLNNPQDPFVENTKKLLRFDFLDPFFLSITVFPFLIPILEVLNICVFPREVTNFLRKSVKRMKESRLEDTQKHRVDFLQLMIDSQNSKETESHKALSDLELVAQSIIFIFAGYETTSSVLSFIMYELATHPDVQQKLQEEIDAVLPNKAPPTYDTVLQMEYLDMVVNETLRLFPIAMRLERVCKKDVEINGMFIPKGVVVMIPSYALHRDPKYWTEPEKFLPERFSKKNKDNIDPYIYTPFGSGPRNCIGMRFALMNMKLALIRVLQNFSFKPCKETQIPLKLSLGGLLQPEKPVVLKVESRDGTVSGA

Oc1cc(Cl)cc(-c2cc(Cl)ccc2Cl)c1Cl [3-OHCB52, 2,2′,5,5′-tetrachloro-3-biphenylol]
Quantification of metabolites generated from PCB28, 52, and 101 ([1]; CYP3A4 Clone B4): 0,21 nM
Quantification of metabolites generated from PCB28, 52, and 101 ([1]; CYP3A4 Clone D10): 0,66 nM
Quantification of metabolites generated from PCB28, 52, and 101 ([1]; CYP3A4 Clone E6): 0,45 nM
Quantification of metabolites generated from PCB28, 52, and 101 ([2]; CYP2C8 Clone A3): <LOQ
Quantification of metabolites generated from PCB28, 52, and 101 ([2]; CYP2C8 Clone D8): 0,09 nM
Quantification of metabolites generated from PCB28, 52, and 101 ([2]; CYP2C8 Clone D9): <LOQ
Quantification of metabolites generated from PCB28, 52, and 101 ([3]; CYP2E1 Clone B4): 0,38 nM
Quantification of metabolites generated from PCB28, 52, and 101 ([3]; CYP2E1 Clone B5): 0,59 nM
Quantification of metabolites generated from PCB28, 52, and 101 ([3]; CYP2E1 Clone E6): 0,74 nM
Quantification of metabolites generated from PCB28, 52, and 101 ([4]; CYP2A6 Clone B7): 0,87 nM
Quantification of metabolites generated from PCB28, 52, and 101 ([4]; CYP2A6 Clone C4): 0,75 nM
Metabolite concentration formed, range across cell clones [4]: 0.23–0.27 µg/L and 0.74–0.87 nM

Oc1cc(Cl)c(-c2cc(Cl)ccc2Cl)cc1Cl [4-OHCB52, 2,2′,5,5′-tetrachloro-4-biphenylol]
Quantification of metabolites generated from PCB28, 52, and 101 ([1]; CYP3A4 Clone B4): 0,23 nM
Quantification of metabolites generated from PCB28, 52, and 101 ([1]; CYP3A4 Clone D10): 0,72 nM
Quantification of metabolites generated from PCB28, 52, and 101 ([1]; CYP3A4 Clone E6): 0,54 nM
Quantification of metabolites generated from PCB28, 52, and 101 ([2]; CYP2C8 Clone A3): <LOQ
Quantification of metabolites generated from PCB28, 52, and 101 ([2]; CYP2C8 Clone D8): 0,1 nM
Quantification of metabolites generated from PCB28, 52, and 101 ([2]; CYP2C8 Clone D9): <LOQ
Quantification of metabolites generated from PCB28, 52, and 101 ([3]; CYP2E1 Clone B4): 5,55 nM
Quantification of metabolites generated from PCB28, 52, and 101 ([3]; CYP2E1 Clone B5): 8,9 nM
Quantification of metabolites generated from PCB28, 52, and 101 ([3]; CYP2E1 Clone E6): 10,23 nM
Quantification of metabolites generated from PCB28, 52, and 101 ([4]; CYP2A6 Clone B7): 319,55 nM
Quantification of metabolites generated from PCB28, 52, and 101 ([4]; CYP2A6 Clone C4): 1029,16 nM
Quantification of metabolites generated from PCB28, 52, and 101 ([4]; CYP2A6 Clone C5): 30,78 nM
Metabolite concentration formed, range across cell clones [4]: 9.48 to 316.89 µg/L

O=[N+]([O-])c1cc[n+]([O-])c2ccccc12 [4-nitroquinoline-(1)-oxide, reference compound]
Micronucleus formation compared to the negative control ethanol [5]: consistent and significant elevation

Oc1ccc(-c2ccc(Cl)cc2)c(Cl)c1Cl [4′-OHCB25, 2′,3′,4-trichloro-4′-biphenylol]
Metabolite concentration formed, range across cell clones ([6]; HEK293CYP1A2 cell clones, 20 µM PCB28, 24 h): 0.15–0.23 µg/L and 0.56–0.84 nM

Cn1c(=O)c2c(ncn2C)n(C)c1=O [Caffeine, reference compound]
Conversion product ([6]; HEK293CYP1A2, 10 µM substrate, 24 h): Paraxanthine
